Measurements published in ChEMBL document CHEMBL1201862, “PubChem BioAssay data set” (2004).
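In this assay, cells in 96-well plates receive the compound at five concentrations for 48 hours. Endpoints are linearly interpolated between the surrounding concentrations. Abbreviation: GI50, concentration required for 50% inhibition of growth.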 The source made the active and inactive calls. Rule as the data show it: active = GI50 up to about 1.1 µM and inactive = higher.

What was measured:
Experiment in all cases: DTP human tumour cell line panel, 48 h
786-0 = tested on: 786-0
BT-549 = tested on: BT-549
COLO 205 = tested on: COLO 205
HOP-92 = tested on: HOP-92
HT-29 = tested on: HT-29
Hs-578T = tested on: Hs-578T
IGROV-1 = tested on: IGROV-1
K562 = tested on: K562
MDA-N = tested on: MDA-N
NCI/ADR-RES = tested on: NCI/ADR-RES
OVCAR-4 = tested on: OVCAR-4
PC-3 = tested on: PC-3
SF-268 = tested on: SF-268
SK-MEL-28 = tested on: SK-MEL-28
SK-MEL-2 = tested on: SK-MEL-2
SN12C = tested on: SN12C
SW-620 = tested on: SW-620
SF-539 = tested on: SF-539

Row | Structure (SMILES) | GI50 (786-0) | GI50 (BT-549) | GI50 (COLO 205) | GI50 (HOP-92) | GI50 (HT-29) | GI50 (Hs-578T) | GI50 (IGROV-1) | GI50 (K562) | GI50 (MDA-N) | GI50 (NCI/ADR-RES) | GI50 (OVCAR-4) | GI50 (PC-3) | GI50 (SF-268) | GI50 (SK-MEL-28) | GI50 (SK-MEL-2) | GI50 (SN12C) | GI50 (SW-620) | GI50 (SF-539)
1 | Cc1cc(Cc2cc(Cc3cc(C)cc(C(C)(C)C)c3O)c(C)cc2C)c(O)c(C(C)(C)C)c1 | 17.1 µM (inactive) | 17.5 µM (inactive) | 19.5 µM (inactive) | 13.2 µM (inactive) | 18.6 µM (inactive) | 17.5 µM (inactive) | 17.3 µM (inactive) | 15.7 µM (inactive) | 18.6 µM (inactive) | 17.9 µM (inactive) | 11 µM (inactive) | > 100 µM (inactive) | 15.9 µM (inactive) | 18 µM (inactive) | > 100 µM (inactive) | 16.6 µM (inactive) | 17.9 µM (inactive) | –
2 | Cn1c(=O)c2nc(CCNC(=O)c3ccccc3)[nH]c2n(C)c1=O | > 100 µM (inactive) | > 100 µM (inactive) | – | > 100 µM (inactive) | > 100 µM (inactive) | > 100 µM (inactive) | > 100 µM (inactive) | > 100 µM (inactive) | > 100 µM (inactive) | > 100 µM (inactive) | > 100 µM (inactive) | > 100 µM (inactive) | > 100 µM (inactive) | > 100 µM (inactive) | > 100 µM (inactive) | > 100 µM (inactive) | > 100 µM (inactive) | –
3 | Cc1ccc2nc(-c3ccc(N4C(=O)C(Cl)C4c4ccc(Cl)cc4)cc3)sc2c1 (configuration not stated) | 21.9 µM (inactive) | 36.7 µM (inactive) | 14.6 µM (inactive) | 0.137 µM (active) | 1.95 µM (inactive) | 23.3 µM (inactive) | – | 24.5 µM (inactive) | 17.9 µM (inactive) | 18.5 µM (inactive) | 1.95 µM (inactive) | 10.5 µM (inactive) | 22.8 µM (inactive) | 8.75 µM (inactive) | – | 19.9 µM (inactive) | 21.5 µM (inactive) | 17.5 µM (inactive)
4 | CC(=O)OCCOCn1c2c(c(=O)[nH]c1=O)CCC2 | > 100 µM (inactive) | > 100 µM (inactive) | > 100 µM (inactive) | > 100 µM (inactive) | > 100 µM (inactive) | > 100 µM (inactive) | > 100 µM (inactive) | > 100 µM (inactive) | > 100 µM (inactive) | – | > 100 µM (inactive) | > 100 µM (inactive) | > 100 µM (inactive) | > 100 µM (inactive) | > 100 µM (inactive) | > 100 µM (inactive) | > 100 µM (inactive) | > 100 µM (inactive)
5 | COc1ccc2c3c1OC1C4(CCC5C(C2)N(CC2CC2)CCC351)OCCO4 (configuration not stated) | > 100 µM (inactive) | > 100 µM (inactive) | > 100 µM (inactive) | > 100 µM (inactive) | > 100 µM (inactive) | > 100 µM (inactive) | > 100 µM (inactive) | > 100 µM (inactive) | > 100 µM (inactive) | > 100 µM (inactive) | > 100 µM (inactive) | > 100 µM (inactive) | > 100 µM (inactive) | > 100 µM (inactive) | > 100 µM (inactive) | > 100 µM (inactive) | > 100 µM (inactive) | –
6 | NC(=O)C[S+]([O-])CC(N)C(=O)O (configuration not stated) | > 100 µM (inactive) | > 100 µM (inactive) | – | > 100 µM (inactive) | > 100 µM (inactive) | > 100 µM (inactive) | > 100 µM (inactive) | > 100 µM (inactive) | > 100 µM (inactive) | > 100 µM (inactive) | > 100 µM (inactive) | > 100 µM (inactive) | > 100 µM (inactive) | > 100 µM (inactive) | > 100 µM (inactive) | > 100 µM (inactive) | > 100 µM (inactive) | –
7 | Cc1ccc2c(c1)C(=O)c1nc(C)ccc1C2=O | 43.8 µM (inactive) | 53.7 µM (inactive) | 17.3 µM (inactive) | – | 17 µM (inactive) | > 100 µM (inactive) | 22.1 µM (inactive) | 37.1 µM (inactive) | 20.2 µM (inactive) | 21.4 µM (inactive) | 28.2 µM (inactive) | 35.2 µM (inactive) | 32 µM (inactive) | 50.7 µM (inactive) | > 100 µM (inactive) | 26.5 µM (inactive) | 33.5 µM (inactive) | 21.7 µM (inactive)
8 | C=CCc1cccc2cc(C(N)=O)c(=N)oc12 | 73.8 µM (inactive) | > 100 µM (inactive) | > 100 µM (inactive) | 68.7 µM (inactive) | > 100 µM (inactive) | > 10 µM (inactive) | 23.8 µM (inactive) | – | > 100 µM (inactive) | > 100 µM (inactive) | > 100 µM (inactive) | > 100 µM (inactive) | > 10 µM (inactive) | > 100 µM (inactive) | 99.5 µM (inactive) | > 100 µM (inactive) | > 100 µM (inactive) | –
9 | COc1ccccc1-n1c(=O)n(C)c(=O)n1C(C)(C)C | > 100 µM (inactive) | > 100 µM (inactive) | > 100 µM (inactive) | – | > 100 µM (inactive) | > 100 µM (inactive) | – | > 100 µM (inactive) | > 100 µM (inactive) | > 100 µM (inactive) | > 100 µM (inactive) | > 100 µM (inactive) | > 100 µM (inactive) | > 100 µM (inactive) | > 100 µM (inactive) | > 100 µM (inactive) | > 100 µM (inactive) | > 100 µM (inactive)
10 | CC(=O)O[C@H]1C(=O)[C@@]2(C)[C@H]([C@H](OC(=O)c3ccco3)[C@]3(O)C[C@H](OC(=O)[C@H](O)[C@@H](NC(=O)c4ccccc4)c4ccccc4)C(C)=C1C3(C)C)[C@]1(OC(C)=O)CO[C@@H]1C[C@@H]2O | 1.16 µM (inactive) | 2.81 µM (inactive) | 0.114 µM (active) | – | 0.0393 µM (active) | 0.0608 µM (active) | 0.251 µM (active) | 0.078 µM (active) | 0.0127 µM (active) | > 25 µM (inactive) | > 22.4 µM (inactive) | 0.12 µM (active) | 0.185 µM (active) | – | 0.0594 µM (active) | 0.308 µM (active) | 0.146 µM (active) | 0.0356 µM (active)
11 | CCCCCC(C)(C)CCC(=O)OC1OC(COC2OC(COC3OC(CO)C(O)C(O)C3O)C(O)C(O)C2O)C(O)C(O)C1O (configuration not stated) | > 100 µM (inactive) | > 100 µM (inactive) | > 100 µM (inactive) | > 100 µM (inactive) | > 100 µM (inactive) | > 100 µM (inactive) | > 100 µM (inactive) | > 100 µM (inactive) | > 100 µM (inactive) | > 100 µM (inactive) | – | > 100 µM (inactive) | > 100 µM (inactive) | – | > 100 µM (inactive) | > 100 µM (inactive) | > 100 µM (inactive) | > 100 µM (inactive)
12 | N/C(CSCCSC/C(N)=N/O)=N\O | > 100 µM (inactive) | > 100 µM (inactive) | > 100 µM (inactive) | > 100 µM (inactive) | > 100 µM (inactive) | > 100 µM (inactive) | > 100 µM (inactive) | > 100 µM (inactive) | > 100 µM (inactive) | > 100 µM (inactive) | > 100 µM (inactive) | > 100 µM (inactive) | > 100 µM (inactive) | > 100 µM (inactive) | – | > 100 µM (inactive) | > 100 µM (inactive) | > 100 µM (inactive)
13 | c1ccc(C2CC(N3CCOCC3)=Nc3ccccc3N2)cc1 (configuration not stated) | > 100 µM (inactive) | > 100 µM (inactive) | > 100 µM (inactive) | – | > 100 µM (inactive) | > 100 µM (inactive) | 93.8 µM (inactive) | 58.2 µM (inactive) | > 100 µM (inactive) | > 100 µM (inactive) | > 100 µM (inactive) | > 100 µM (inactive) | > 100 µM (inactive) | > 100 µM (inactive) | > 100 µM (inactive) | > 100 µM (inactive) | > 100 µM (inactive) | > 100 µM (inactive)
14 | CC(N)C(C)Cc1ccccc1 (configuration not stated) | > 100 µM (inactive) | > 100 µM (inactive) | > 100 µM (inactive) | 64.4 µM (inactive) | > 100 µM (inactive) | 77.1 µM (inactive) | > 100 µM (inactive) | > 100 µM (inactive) | > 100 µM (inactive) | > 100 µM (inactive) | > 100 µM (inactive) | > 100 µM (inactive) | > 100 µM (inactive) | > 100 µM (inactive) | – | > 100 µM (inactive) | > 100 µM (inactive) | –
15 | CCCCc1ccc(Nc2nc(Cl)c3ncn(C4CC(Oc5ccc(C)cc5)C(COc5ccc(C)cc5)O4)c3n2)cc1 (configuration not stated) | > 100 µM (inactive) | > 100 µM (inactive) | > 100 µM (inactive) | 17.2 µM (inactive) | > 100 µM (inactive) | > 100 µM (inactive) | > 100 µM (inactive) | > 100 µM (inactive) | > 100 µM (inactive) | > 100 µM (inactive) | – | – | > 100 µM (inactive) | – | > 100 µM (inactive) | > 100 µM (inactive) | > 100 µM (inactive) | > 100 µM (inactive)
16 | CC1C2C=CC1C(c1c3ccc(=O)c(O)c-3oc3c(O)c(O)ccc13)C2C(=O)O (configuration not stated) | 61 µM (inactive) | > 100 µM (inactive) | > 100 µM (inactive) | 75 µM (inactive) | > 100 µM (inactive) | 89.5 µM (inactive) | > 100 µM (inactive) | 21.4 µM (inactive) | 21.4 µM (inactive) | > 100 µM (inactive) | 78.9 µM (inactive) | > 100 µM (inactive) | > 100 µM (inactive) | > 100 µM (inactive) | > 100 µM (inactive) | 24 µM (inactive) | 34.3 µM (inactive) | –
